Results published in patent US10058530B2, “Combination therapies for the treatment of Alzheimer's disease and related disorders” (The General Hospital Corporation, priority 2012, dated 2018).
Entries after “also recorded” stand apart in the source; their conditions may differ. Like-named read-outs stand apart in the source and are kept apart here.

Legend:
[1] = test system: Aβ fibril formation; details: cited from earlier work
[2] = test system: Alzheimer's disease patients; details: Phase 2a; cited from earlier work
[3] = in vivo; cited from earlier work
[4] = test system: AD patients; details: some AD patients; Wettstein and Spiegel, 1985; cited from earlier work
[5] = test system: Aβ peptide; experiment: Aβ aggregation by thioflavin T assay; format: biochemical; details: for inhibition of Aβ amyloid peptide polymerization into oligomers and higher order aggregates: summary of four separate in vitro assays, nanomolar concentrations; for inhibition of Aβ aggregation, thioflavin fluorescence: nanomolar concentration
Protocol: One of the most routinely used approaches to monitor Aβ polymerization is the thioflavin T binding assay. […] Aβ peptide at 5 μM was mixed with 10 μM thioflavin T with drug at different concentrations.
(§1) One of the most routinely used approaches to monitor Aβ polymerization is the thioflavin T binding assay (Elmaleh, 2014; Hori, 2015). […] Aβ peptide at 5 μM was mixed with 10 μM thioflavin T with drug at different concentrations.
Fibrillization of synthetic Aβ40 (FIG. 12A, left column and FIG. 12B, left column) or Aβ42 (FIG. 12A, right column and FIG. 12B, right column) peptides was followed over 1 hour.

[6] = Brain concentration of PIB analog TS3124; details: in vivo
[7] = target: T1, Aβ40 (Homo sapiens, UniProt P05067); experiment: Thioflavin T fibrillization assay, synthetic Aβ40; format: biochemical; design: host or cells: synthetic peptide; details: 5 nM, 50 nM and 500 nM; followed over 1 hour
T1 sequence (P05067 672-711 limits assumed): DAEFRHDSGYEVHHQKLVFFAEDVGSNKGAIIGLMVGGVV
Protocol: as §1
(§2) Fibrillization of synthetic Aβ40 (FIG. 12A, left column and FIG. 12B, left column) or Aβ42 (FIG. 12A, right column and FIG. 12B, right column) peptides was followed over 1 hour. The corresponding Vmax index (milli-units/minute) is indicated on each graph.

[8] = target: Abeta (1-40) peptides (Homo sapiens, UniProt P05067); experiment: UV aggregation assay; format: biochemical
Chain of Abeta (1-40) peptides (P05067 672-711 limits assumed): as above
Protocol: Abeta peptide aggregation and the impact of drugs to slow or prevent Abeta aggregation was measured by a UV absorbance assay (Findeis, 1999). Abeta (1-40) peptides, at 50 μM, were mixed with 50 μM drug in assay buffer and the plate was incubated at ambient temperature on a plate reader. The UV absorbance was monitored at 540 nm over a 2-3 h period.
Polymerization of Aβ-monomer peptides into clusters of trimers and tetramers initiates the Aβ aggregation process into protofibrils and then into fibrils that form amyloid plaques.

[9] = test system: microglial cells; experiment: Aβ uptake by cultured microglial cells; format: cell-based; details: 0, 10 nM, 10 μM or 1 mM, 16 hours
Protocol: After the incubation, the concentrations of […]-42 (right panel) in media were measured using Aβ ELISA and normalized with microglia cell number and according to the PBS control condition. (n=3 experiments; *, P<0.05, **, P<0.01)

[10] = test system: TBS soluble Aβ; experiment: TBS soluble Aβ level in brain of APP/PS1 mice by WAKO ELISA; format: in vivo
Source text: (§3) The treatment was given by IP injection everyday for 7 days before sacrificing the mice and harvesting the brain. Brain extracts were quantified for the total amount of Aβ40, Aβ42 and Aβ oligomers.
(§4) FIG. 5 illustrates the measurement of TBS soluble Aβ level by WAKO ELISA. […] As indicated, the number of animals per group is N=3 or 5, average±SE. The p value is significant using one-way ANOVA test (Bonferroni's test).

[11] = test system: microglia (Iba1) around amyloid deposits; experiment: Immunostaining of Aβ and microglial marker Iba1 in brain sections of APP/PS1 mice; format: in vivo; details: 3.15 mg/kg daily for seven days, vs PBS
[12] = human lung, high inspiratory rates, dry powder inhaler; cited from earlier work
[13] = target: T2, Aβ42 (Homo sapiens, UniProt P05067); experiment: TBS soluble Aβ42 level in brain of APP/PS1 mice by WAKO ELISA; format: in vivo; design: from tissue; host or cells: brain TBS-soluble extract of APP/PS1 transgenic mice; details: two higher doses (2.1 mg/kg and 3.15 mg/kg), IP daily 7 days
T2 sequence (P05067 672-713 limits assumed): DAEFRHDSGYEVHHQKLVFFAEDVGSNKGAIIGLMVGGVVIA
Source text: as §3, §4

[14] = test system: Aβ oligomer; experiment: TBS soluble Aβ oligomer level in brain of APP/PS1 mice (IBL 82E1-82E1 oligomer ELISA); format: in vivo; details: IP daily 7 days
Source text: as §3
FIG. 6 illustrates the measurement of TBS soluble Aβ oligomer level IBL oligomer ELISA (82E1-82E1). […] FIGS. 6B and 6C show the difference the experiments with Gdn and those without Gdn using Aβ WAKO ELISA. N=3 or 5 animals per group, average±SE. The p value is not significant using one-way ANOVA test (Bonferroni's test).

[15] = target: T2, Aβ42; experiment: Thioflavin T fibrillization assay, synthetic Aβ42; format: biochemical; design: host or cells: synthetic peptide; details: 5 nM, 50 nM and 500 nM; followed over 1 hour; smaller effects than on Aβ40
Protocol: as §1, §2

[16] = human
[17] = clinical; details: human, in vivo; for MRT: mean residence time in plasma
[18] = J. Pharm. Sci. 92(6), 2003; cited from earlier work
[19] = inhalation studies, Beach et al. 1981; cited from earlier work
[20] = target: T1, Aβ40; experiment: TBS soluble Aβ40 level in brain of APP/PS1 mice by WAKO ELISA; format: in vivo; design: from tissue; host or cells: brain TBS-soluble extract of APP/PS1 transgenic mice; details: two higher doses (2.1 mg/kg and 3.15 mg/kg), IP daily 7 days
Source text: as §3, §4

[21] = test system: cholinergic neurons; details: aged rhesus monkeys; cited from earlier work
[22] = test system: basal forebrain cholinergic neurons; details: rats; cited from earlier work

For `O=c1c(O)c(-c2ccc(O)c(O)c2)oc2ccccc12` [3,3′,4′-Trihydroxyflavone, 3,3′,4′-Tri-hydroxyflavone], the “Effects on Aβ fibril formation” value [1] is given as “Inhibitory”.

For `O=c1c(O)c(-c2cccc(O)c2)oc2cc(O)ccc12` [3,3′,7-Trihydroxyflavone, 3,3′,7-Tri-hydroxyflavone], the “Effects on Aβ fibril formation” value [1] is given as “Enhancing”.

For `O=c1c(O)c(-c2ccc(O)cc2)oc2cc(O)ccc12` [3,4′,7-Trihydroxyflavone, 3,4′,7-Tri-hydroxyflavone], the “Effects on Aβ fibril formation” value [1] is listed as “Inhibitory”.

In the case of `O=c1c(O)c(-c2ccc(O)cc2)oc2cc(O)ccc12` [5-Deoxykaempferol, 5-Deoxy-kaempferol], the “Effects on Aβ fibril formation” value [1] is listed as “Enhancing”.

For `O=c1cc(-c2ccccc2)oc2cc(O)cc(O)c12` [Chrysin], the “Effects on Aβ fibril formation” value [1] is listed as “Enhancing”.

In the case of `O=c1c(O)c(-c2ccc(O)cc2)oc2cc(O)cc(O)c12` [Kaempferol], the “Effects on Aβ fibril formation” value [1] is listed as “Enhancing”.

For `O=c1cc(-c2ccc(O)c(O)c2)oc2cc(O)cc(O)c12` [Luteolin], the “Effects on Aβ fibril formation” value [1] is given as “Inhibitory”.

In the case of `O=c1c(O)c(-c2cc(O)c(O)c(O)c2)oc2cc(O)cc(O)c12` [Myricetin], the “Effects on Aβ fibril formation” value [1] is given as “Inhibitory”.

In the case of `O=c1c(O)c(-c2ccc(O)c(O)c2)oc2cc(O)cc(O)c12` [Quercetin], the “Effects on Aβ fibril formation” value [1] is listed as “Inhibitory”.

In the case of `O=C(NC1CN2CCC1CC2)c1n[nH]c2ccccc12` (stereo not drawn) [R3487], the “effect on multiple measures of cognition” value [2] is listed as “statistically significant effect”.

For `CCN1C(=O)CC2(CCN(C)CC2)C1=O` [RS-86, 2-ethyl-8-methyl-2,8-diazospiro-4,5-decan-1,3-dione], the brain penetration [3] is given as “low” and the “cognitive function, mood and social behavior” value [4] is given as “improves cognitive function, mood and social behavior”.

With `O=C([O-])c1cc(=O)c2c(OCC(F)COc3cccc4oc(C(=O)[O-])cc(=O)c34)cccc2o1.[Na+].[Na+]` [TS734] the “inhibition of Aβ amyloid peptide polymerization into oligomers and higher order aggregates” value [5] was “effectively inhibits”.

With `CC(F)CNc1ccc(-c2nc3ccc(O)cc3s2)cc1` (stereo not drawn) [TS3124] the brain concentration [6] was 4%.

In the case of `O=C([O-])c1cc(=O)c2c(OCC(O)COc3cccc4oc(C(=O)[O-])cc(=O)c34)cccc2o1.[Na+].[Na+]` [cromolyn sodium], the “concentration at which Aβ peptide polymerization is inhibited” value [5] is reported as 5 nM, the “inhibition of Aβ aggregation, thioflavin fluorescence” value [5] is reported as “inhibition of Aβ aggregation; also recorded: inhibiting effect” and the “inhibition of Aβ aggregation, thioflavin fluorescence” value ([5]; listed as CO399) is reported as “inhibition of Aβ aggregation”. For the same compound, the “inhibition of Aβ amyloid peptide polymerization into oligomers and higher order aggregates” value [5] was “inhibits its polymerization into oligomers and higher order aggregates; also recorded: effectively inhibits”, the “inhibition of Aβ amyloid peptide polymerization into oligomers and higher order aggregates” value ([5]; listed as cromolyn) was “effectively inhibits” and the “Aβ40 fibrillization, Thioflavin T fluorescence” value [7] was “significantly decreased”. The “inhibition of Aβ peptide polymerization” value [8] was 8 fold, the “inhibition of the rate of Aβ polymerization” value ([8]; equimolar with Aβ (50 μM)) was 7 fold and the “time to 50% polymerization” value ([8]; equimolar with Aβ (50 μM), 14 minutes in absence of drug) was 75 min. For the same compound, the “Aβ40 levels in media of microglia culture” value ([9]; 50 nM synthetic Aβ40) was “dose-dependent decrease”, the “Aβ42 levels in media of microglia culture” value ([9]; 50 nM synthetic Aβ42) was “dose-dependent decrease” and the “monomeric Aβ (Gdn−)” value ([10]; APP/PS1 mice, IP daily 7 days, no guanidine) was “decease; also recorded: reduction”. For the same compound, the “decrease of total soluble Aβ levels” value ([10]; after 1 week of peripheral administration) was “over 50%”, the “percentage of Iba1 immunoreactivity overlapping with amyloid” value [11] was “higher percentage of Iba1 immunoreactivity overlapping with amyloid” and the “percentage of Iba1 immunoreactivity overlapping with amyloid” value ([11]; listed as Cromolyn Sodium) was “increased overlap between Aβ and Iba1”. The “inhaled drug-delivered-dose absorbed into the bloodstream” value [12] was 10-15%, the “decrease in the amount of Aβ42” value [13] was “up to 50%” and the “Aβ oligomer level as difference with and without Gdn, WAKO ELISA” value [14] was “not changed”. For the same compound, the “Aβ42 fibrillization, Thioflavin T fluorescence” value [15] was “significantly decreased”, the “AUC (plasma)” value ([16]; 17.1 mg inhaled) was 147.5±67.1 ng/mlxh and the “AUC (plasma), range” value ([16]; 17.1 mg inhaled) was 44.7-287.0 ng/mlxh. For the same compound, the maximum plasma concentration ([16]; 17.1 mg inhaled) was 47.1 ± 33.6 ng/mL, the “maximum plasma concentration, range” value ([16]; 17.1 mg inhaled) was 14.0 to 133 ng/mL and the “time of maximum plasma concentration” value ([16]; 17.1 mg inhaled) was 23.3 ± 16.9 min. For the same compound, the “time of maximum plasma concentration, range” value ([16]; 17.1 mg inhaled) was 5 to 60 min, the “AUC (plasma)” value ([16]; 34.2 mg inhaled (double dose)) was 254.4±93.8 ng/mlxh and the “AUC (plasma), range” value ([16]; 34.2 mg inhaled (double dose)) was 122.1-443.3 ng/mlxh. For the same compound, the maximum plasma concentration ([16]; 34.2 mg inhaled (double dose)) was 95.0 ± 45.5 ng/mL, the “maximum plasma concentration, range” value ([16]; 34.2 mg inhaled (double dose)) was 36.1 to 236 ng/mL and the “time of maximum plasma concentration” value ([16]; 34.2 mg inhaled (double dose)) was 22.2 ± 19.4 min. The “time of maximum plasma concentration, range” value ([16]; 34.2 mg inhaled (double dose)) was 5 to 60 min, the “plasma concentration at 12 hours following inhalation” value ([16]; inhaled, expected) was “negligible” and the MRT ([17]; inhaled or intranasal, 17.1 mg, 17.1 mg inhaled) was 3.3 ± 2.9 h. It also gave an MRT ([17]; inhaled or intranasal, 17.1 mg, range, 17.1 mg inhaled) of 0.79 to 12.1 h, an MRT ([17]; inhaled or intranasal, 34.2 mg, 34.2 mg inhaled (double dose)) of 2.8 ± 1 h and an MRT ([17]; inhaled or intranasal, 34.2 mg, range, 34.2 mg inhaled (double dose)) of 1 to 5.4 h. The half-life ([17]; inhaled or intranasal, half-life of clearance from plasma, inhaled) was 105 ± 54 min, the half-life ([17]; inhaled or intranasal, half-life of clearance from plasma, range, inhaled) was 30 to 222 min and the half-life ([17]; plasma half-life corresponding to mean residence time, 17.1 mg inhaled) was about 138 min. The “% PSA” value [18] was 44, the LogP [18] was 1.9 and the PSA [18] was 189. For the same compound, the “pulmonary and cardiovascular (CV) function assessments” value [19] was “no treatment effect” and the “decrease in the amount of Aβ40” value [20] was “up to 50%”.

In the case of Fisetin, the “Effects on Aβ fibril formation” value [1] is given as “Inhibitory”.

In the case of “NGF: nerve growth factor; CERE-110 is NGF gene therapy”, the cholinergic axonal density [21] is listed as “restores cholinergic axonal density in aged monkeys to levels observed in young monkeys”, the cholinergic neuron atrophy [21] is listed as “ameliorates cholinergic neuron atrophy” and the age-related behavioral decline [22] is listed as “reversed age-related behavioral decline”. For the same compound, the “cholinergic neuron cell death” value [22] was “prevented cholinergic neuron cell death”.
